Reference: ChEMBL document CHEMBL5579843, “Multimechanism biological profiling of tetrahydro-β-carboline analogues as selective HDAC6 inhibitors for the treatment of Alzheimer's disease” (Eur J Med Chem, 2024)
Activity calls are given as the source filed them. No cut-off for these calls is given here.

Key:
[1] = test system: PC-12; assay: Induction of neurite outgrowth in rat PC-12 cells assessed as increase in neuronal protrusions at 10 uM measured after 48 hrs by light microscopic analysis; assay type: functional, cell-based
[2] = test system: PC-12; assay: Upregulation of GAP-43 protein expression in rat PC-12 cells measured after 24 hrs by Western blot analysis; assay type: functional, cell-based; conditions: dose 1-10 µM
[3] = test system: PC-12; assay: Neuroprotective activity against 6-OHDA-induced oxidative damage in rat PC-12 cells assessed as increase in cell survival at 1 to 10 uM pretreated for 4 hrs followed by 500 uM 6-OHDA stimulation and measured after 24 hrs by MTT assay; assay type: functional, cell-based; conditions: dose 1-10 µM, time 28.0 hrs
[4] = Antioxidant activity assessed as DPPH scavenging activity incubated for 0.5 hrs by absorbance based assay; assay type: functional
[5] = test system: PC-12; assay: Neuroprotective activity against H2O2-induced oxidative damage in rat PC-12 cells assessed as cell survival rate at 10 uM pretreated for 4 hrs followed by 800 uM H2O2 stimulation and measured after 24 hrs by MTT assay relative to control; assay type: functional; conditions: time 28 hrs, read-out: Survival
[6] = test system: PC-12; assay: Neuroprotective activity against H2O2-induced oxidative damage in rat PC-12 cells assessed as reduction in intracellular LDH level by measuring residual activity at 10 uM pretreated for 4 hrs followed by H2O2 stimulation and measured after 24 hrs relative to control; assay type: functional; conditions: time 28 hrs
[7] = organism: Danio rerio; assay: Cognitive improvement ability in scopolamine induced zebrafish alzheimer disease model assessed as improvement in spatial memory by measuring increase in activity at enriched chamber region at 1 mg/L pretreated with scopolamine for 30 mins followed by compound addition for 3 mins by T-maze test; assay type: functional, organism-based
[8] = Antioxidant activity assessed as ABTS radical scavenging activity measured after 30 mins by absorbance based analysis; assay type: functional
[9] = test system: PC-12; assay: Neuroprotective activity against H2O2-induced oxidative damage in rat PC-12 cells assessed as inhibition of apoptosis by measuring early apoptotic cells at 10 uM pretreated for 4 hrs followed by H2O2 stimulation and measured after 24 hrs by Annexin V-FITC/PI staining based flow cytometry analysis (reference value: 2.32%); assay type: functional; set-up: scale not given: the % may be the effect or the level left; conditions: time 28 hrs
[10] = test system: PC-12; assay: Induction of neurite outgrowth in rat PC-12 cells assessed as increase in neuronal growth at 10 uM measured after 48 hrs by light microscopic analysis relative to control; assay type: functional
[11] = test system: PC-12; assay: Upregulation of beta-3 tubulin protein expression in rat PC-12 cells measured after 24 hrs by Western blot analysis; assay type: functional, cell-based; conditions: dose 1-10 µM
[12] = test system: PC-12; assay: Inhibition of HDAC6 in rat PC-12 cells assessed as increase in acetylated alpha-tubulin level incubated for 6 hrs by Western blot analysis; assay type: cell-based; conditions: dose 0.1-10 µM
[13] = test system: PC-12; assay: Induction of neurite outgrowth in rat PC-12 cells measured after 48 hrs by light microscopic analysis; assay type: functional, cell-based; conditions: dose 1-10 µM
[14] = test system: PC-12; assay: Neuroprotective activity against H2O2-induced oxidative damage in rat PC-12 cells assessed as reduction in intracellular LDH level by measuring residual activity at 1 uM pretreated for 4 hrs followed by H2O2 stimulation and measured after 24 hrs relative to control; assay type: functional; conditions: time 28 hrs
[15] = test system: PC-12; assay: Neuroprotective activity against H2O2-induced oxidative damage in rat PC-12 cells assessed as increase in Prx II protein expression measured after 24 hrs by Western blot analysis; assay type: functional, cell-based; conditions: dose 1-10 µM
[16] = organism: Danio rerio; assay: Cognitive improvement ability in scopolamine induced zebrafish alzheimer disease model assessed as improvement in motor activity by measuring increase in total distance of swimming at 1 mg/L pretreated with scopolamine for 30 mins followed by compound addition for 3 mins by T-maze test; assay type: functional, organism-based
[17] = test system: PC-12; assay: Neuroprotective activity against H2O2-induced oxidative damage in rat PC-12 cells assessed as increase in catalase protein expression at 10 uM pretreated for 4 hrs followed by H2O2 stimulation and measured after 24 hrs by Western blot analysis; assay type: functional, cell-based; conditions: time 28.0 hrs
[18] = test system: SH-SY5Y; assay: Neuroprotective activity against H2O2-induced oxidative damage in human SH-SY5Y cells assessed as cell survival rate at 10 uM pretreated for 4 hrs followed by 200 uM H2O2 stimulation and measured after 24 hrs by MTT assay relative to control; assay type: functional; conditions: time 28 hrs
[19] = test system: PC-12; assay: Induction of neurite outgrowth in rat PC-12 cells assessed as increase in number of neurites per cells at 1 to 10 uM measured after 48 hrs by light microscopic analysis; assay type: functional, cell-based; conditions: dose 1-10 µM
[20] = test system: PC-12; assay: Neuroprotective activity against H2O2-induced oxidative damage in rat PC-12 cells assessed as inhibition of apoptosis by measuring decrease in PARP protein expression pretreated for 4 hrs followed by H2O2 stimulation and measured after 24 hrs by Western blot analysis; assay type: functional, cell-based; conditions: dose 1-10 µM, time 28.0 hrs
[21] = organism: Danio rerio; assay: Effect on anxiety-like behavior in scopolamine induced zebrafish alzheimer disease model assessed as exploratory behavior in upper part of aquarium by measuring increase in total swimming distance at 1 mg/L pretreated with scopolamine for 30 mins followed by compound addition for 3 mins by novel tank diving test; assay type: functional, organism-based
[22] = test system: PC-12; assay: Neuroprotective activity against H2O2-induced oxidative damage in rat PC-12 cells assessed as reduction in ROS level at 10 uM pretreated for 4 hrs followed by H2O2 stimulation and measured after 24 hrs by DCFH-DA staining based fluorescence microscopic analysis; assay type: functional, cell-based; conditions: time 28.0 hrs
[23] = target: T1, Polyamine deacetylase HDAC10 (Homo sapiens, UniProt Q969S8); assay: Inhibition of HDAC10 (unknown origin) by TR-FRET assay
T1 sequence (Q969S8 whole entry): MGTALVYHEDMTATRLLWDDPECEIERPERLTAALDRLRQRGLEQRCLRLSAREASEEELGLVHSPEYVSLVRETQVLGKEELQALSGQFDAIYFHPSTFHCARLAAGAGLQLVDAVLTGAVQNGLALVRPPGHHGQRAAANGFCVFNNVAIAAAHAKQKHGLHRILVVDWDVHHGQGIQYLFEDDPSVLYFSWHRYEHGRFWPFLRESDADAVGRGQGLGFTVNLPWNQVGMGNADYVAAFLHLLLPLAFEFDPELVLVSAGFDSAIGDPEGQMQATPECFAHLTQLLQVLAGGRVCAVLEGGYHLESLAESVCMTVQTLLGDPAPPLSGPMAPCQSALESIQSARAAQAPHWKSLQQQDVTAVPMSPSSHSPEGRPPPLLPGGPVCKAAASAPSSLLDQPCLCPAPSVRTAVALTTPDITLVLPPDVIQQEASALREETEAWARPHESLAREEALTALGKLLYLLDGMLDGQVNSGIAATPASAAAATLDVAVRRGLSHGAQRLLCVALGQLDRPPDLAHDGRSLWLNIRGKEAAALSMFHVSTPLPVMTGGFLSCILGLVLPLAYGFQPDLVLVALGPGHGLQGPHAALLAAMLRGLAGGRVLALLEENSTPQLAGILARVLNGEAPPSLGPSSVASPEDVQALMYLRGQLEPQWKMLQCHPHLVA

[24] = test system: PC-12; assay: Neuroprotective activity against H2O2-induced oxidative damage in rat PC-12 cells assessed as SOD activity at 10 uM pretreated for 4 hrs followed by H2O2 stimulation and measured after 24 hrs by WST-8 assay; assay type: functional; conditions: time 28 hrs
[25] = test system: PC-12; assay: Neuroprotective activity against H2O2-induced oxidative damage in rat PC-12 cells assessed as inhibition of apoptosis by measuring live cells at 10 uM pretreated for 4 hrs followed by H2O2 stimulation and measured after 24 hrs by Annexin V-FITC/PI staining based flow cytometry analysis (reference value: 81.7%); assay type: functional; set-up: scale not given: the % may be the effect or the level left; conditions: time 28 hrs
[26] = organism: Danio rerio; assay: Effect on anxiety-like behavior in scopolamine induced zebrafish alzheimer disease model assessed as exploratory behavior in upper part of aquarium by measuring increase in swimming speed at 1 mg/L pretreated with scopolamine for 30 mins followed by compound addition for 3 mins by novel tank diving test; assay type: functional, organism-based

## O=C(NO)c1ccc(CN2CCc3c(n(CC4CC4)c4ccc(F)cc34)C2)cc1
[1]
  Activity: Active
[2]
  Activity: Dose-Dependent Effect
[3]
  Activity: Active
[4]
  IC50: 22.5 µM
[5]
  viability at 10 µM: 89.7%
[6]
  Activity: 35.9%
[7]
  Activity: Active
[8]
  IC50: 10.4 µM
[9]
  Activity: 4.22%
[10]
  Activity: 15.3%
[11]
  Activity: Dose-Dependent Effect
[12]
  inhibition: Dose-Dependent Effect
[13]
  Activity: Dose-Dependent Effect
[14]
  Activity: 74.3%
[15]
  Activity: Dose-Dependent Effect
[16]
  Activity: Active
[17]
  Activity: Active
[18]
  Activity: 78%
[19]
  Activity: Active
[20]
  Activity: Dose-Dependent Effect
[21]
  Activity: Active
[22]
  Activity: Active
[23]
  IC50: 0.524 µM
[24]
  Activity: 17.16 U/mg
[25]
  Activity: 91.5%
[26]
  Activity: Active
